From ChEMBL document CHEMBL2413072, “Synthesis and in vitro anticancer studies of novel C-2 arylidene congeners of lantadenes” (2013)

Tests used:
Type in all cases: functional
T47D [1] = assay: Growth inhibition of human T47D cells assessed as cell growth at 10 uM by sulforhodamine B assay; details: read-out: Activity
Malme-3M = assay: Growth inhibition of human MALME-3M cells assessed as cell growth at 10^-8 M by sulforhodamine B assay; details: read-out: Activity
NCI-H23 = assay: Growth inhibition of human NCI-H23 cells assessed as cell growth at 10^-4 M by sulforhodamine B assay; details: read-out: Activity
SR [2] = assay: Growth inhibition of human SR cells assessed as cell growth at 10 uM by sulforhodamine B assay; details: read-out: Activity
T47D [3] = assay: Growth inhibition of human T47D cells assessed as cell growth at 10^-4 M by sulforhodamine B assay; details: read-out: Activity
T47D [4] = assay: Growth inhibition of human T47D cells assessed as growth inhibition at 10 uM by sulforhodamine B assay; details: read-out: GI
RXF 393 = assay: Growth inhibition of human RXF393 cells assessed as cell growth at 10 uM by sulforhodamine B assay; details: read-out: Activity
NCI-H322M = assay: Growth inhibition of human NCI-H322M cells assessed as cell growth at 10^-4 M by sulforhodamine B assay; details: read-out: Activity
SNB-75 = assay: Growth inhibition of human SNB75 cells assessed as cell growth at 10^-6 M by sulforhodamine B assay; details: read-out: Activity
OVCAR-5 = assay: Growth inhibition of human OVCAR5 cells assessed as growth inhibition at 10 uM by sulforhodamine B assay; details: read-out: GI
HCT-15 [5] = assay: Growth inhibition of human HCT15 cells assessed as cell growth at 10^-8 M by sulforhodamine B assay; details: read-out: Activity
CCRF-CEM = assay: Growth inhibition of human CCRF-CEM cells assessed as cell growth at 10^-6 M by sulforhodamine B assay; details: read-out: Activity
OVCAR-8 = assay: Growth inhibition of human OVCAR8 cells assessed as cell growth at 10 uM by sulforhodamine B assay; details: read-out: Activity
MOLT-4 [6] = assay: Growth inhibition of human MOLT4 cells assessed as growth inhibition at 10 uM by sulforhodamine B assay; details: read-out: GI
COLO 205 = assay: Growth inhibition of human COLO205 cells assessed as cell growth at 10^-4 M by sulforhodamine B assay; details: read-out: Activity
[7] = Growth inhibition of human Hs 578T cells assessed as cell growth at 10^-7 M by sulforhodamine B assay; details: read-out: Activity
K562 = assay: Growth inhibition of human K562 cells assessed as cell growth at 10^-8 M by sulforhodamine B assay; details: read-out: Activity
PC-3 [8] = assay: Growth inhibition of human PC3 cells assessed as cell growth at 10^-6 M by sulforhodamine B assay; details: read-out: Activity
OVCAR-3 = assay: Growth inhibition of human OVCAR3 cells by sulforhodamine B assay
HOP-92 [9] = assay: Growth inhibition of human HOP92 cells assessed as growth inhibition at 10 uM by sulforhodamine B assay; details: read-out: GI
PC-3 [10] = assay: Growth inhibition of human PC3 cells assessed as growth inhibition at 10 uM by sulforhodamine B assay; details: read-out: GI
HOP-62 = assay: Growth inhibition of human HOP62 cells assessed as growth inhibition at 10 uM by sulforhodamine B assay; details: read-out: GI
HOP-92 [11] = assay: Growth inhibition of human HOP92 cells by sulforhodamine B assay
LOX IMVI = assay: Growth inhibition of human LOXIMVI cells assessed as growth inhibition at 10 uM by sulforhodamine B assay; details: read-out: GI
MDA-MB-231 = assay: Growth inhibition of human MDA-MB-231 cells assessed as growth inhibition at 10 uM by sulforhodamine B assay; details: read-out: GI
SW-620 = assay: Growth inhibition of human SW620 cells assessed as growth inhibition at 10 uM by sulforhodamine B assay; details: read-out: GI
786-0 = assay: Growth inhibition of human 786-0 cells assessed as cell growth at 10 uM by sulforhodamine B assay; details: read-out: Activity
SNB-19 = assay: Growth inhibition of human SNB19 cells assessed as cell growth at 10^-4 M by sulforhodamine B assay; details: read-out: Activity
HCT-15 [12] = assay: Growth inhibition of human HCT15 cells assessed as cell growth at 10 uM by sulforhodamine B assay; details: read-out: Activity
TK-10 = assay: Growth inhibition of human TK10 cells assessed as cell growth at 10 uM by sulforhodamine B assay; details: read-out: Activity
UACC-257 [13] = assay: Growth inhibition of human UACC257 cells by sulforhodamine B assay
HT-29 = assay: Growth inhibition of human HT-29 cells assessed as growth inhibition at 10 uM by sulforhodamine B assay; details: read-out: GI
MCF7 = assay: Growth inhibition of human MCF7 cells assessed as cell growth at 10^-8 M by sulforhodamine B assay; details: read-out: Activity
SR [14] = assay: Growth inhibition of human SR cells assessed as growth inhibition at 10 uM by sulforhodamine B assay; details: read-out: GI
MOLT-4 [15] = assay: Growth inhibition of human MOLT4 cells assessed as cell growth at 10 uM by sulforhodamine B assay; details: read-out: Activity
IGROV-1 [16] = assay: Growth inhibition of human IGROV1 cells assessed as cell growth at 10^-7 M by sulforhodamine B assay; details: read-out: Activity
UACC-62 = assay: Growth inhibition of human UACC62 cells assessed as cell growth at 10 uM by sulforhodamine B assay; details: read-out: Activity
SN12C = assay: Growth inhibition of human SN12C cells assessed as cell growth at 10^-7 M by sulforhodamine B assay; details: read-out: Activity
HCT-15 [17] = assay: Growth inhibition of human HCT15 cells assessed as cell growth at 10^-7 M by sulforhodamine B assay; details: read-out: Activity
NCI-H522 = assay: Growth inhibition of human NCI-H522 cells assessed as cell growth at 10 uM by sulforhodamine B assay; details: read-out: Activity
IGROV-1 [18] = assay: Growth inhibition of human IGROV1 cells assessed as cell growth at 10 uM by sulforhodamine B assay; details: read-out: Activity
UACC-257 [19] = assay: Growth inhibition of human UACC257 cells assessed as cell growth at 10^-7 M by sulforhodamine B assay; details: read-out: Activity
SK-MEL-28 = assay: Growth inhibition of human SK-MEL-28 cells assessed as growth inhibition at 10 uM by sulforhodamine B assay; details: read-out: GI
[20] = Growth inhibition of human HCC2998 cells assessed as cell growth at 10^-4 M by sulforhodamine B assay; details: HCC 2998, read-out: Activity
KM12 [21] = assay: Growth inhibition of human KM12 cells assessed as cell growth at 10^-7 M by sulforhodamine B assay; details: read-out: Activity
KM12 [22] = assay: Growth inhibition of human KM12 cells assessed as cell growth at 10^-8 M by sulforhodamine B assay; details: read-out: Activity
[23] = read-out: LC50 (the source's name)
[24] = read-out: pLC50 (the source's name) (converted)

## CC(C)=CC(=O)O[C@@H]1CC(C)(C)C[C@H]2C3=CC[C@@H]4[C@@]5(C)CC[C@H](O)C(C)(C)[C@@H]5CC[C@@]4(C)[C@]3(C)CC[C@@]12C(=O)O [Reduced Lantadene B]
T47D [1]
  growth at 10 µM: 86.7%
Malme-3M
  growth at 0.01 µM: 94%
NCI-H23
  growth at 100 µM: -58%
SR [2]
  growth at 10 µM: 70.2%
T47D [3]
  growth at 100 µM: -17%
T47D [4]
  inhibition of growth at 10 µM: 13.3%
RXF 393
  growth at 10 µM: 85.2%
NCI-H322M
  growth at 100 µM: -70%
SNB-75
  growth at 1 µM: 85%
OVCAR-5
  inhibition of growth at 10 µM: < 10%
HCT-15 [5]
  growth at 0.01 µM: 93%
CCRF-CEM
  growth at 1 µM: 75%
OVCAR-8
  growth at 10 µM: 59.9%
MOLT-4 [6]
  inhibition of growth at 10 µM: 50.4%
COLO 205
  growth at 100 µM: -52%
[7]
  growth at 0.1 µM: 97%
K562
  growth at 0.01 µM: 114%
PC-3 [8]
  growth at 1 µM: 67%
OVCAR-3; read-out: GI50
  GI50: 7.04 µM
OVCAR-3; [23]
  CC50: 54.7 µM
OVCAR-3; read-out: TGI
  TGI: 22.1 µM
OVCAR-3; read-out: pGI50 (converted)
  GI50: 7.08 µM
OVCAR-3; [24]
  CC50: 55 µM
OVCAR-3; read-out: pTGI (converted)
  TGI: 21.9 µM
HOP-92 [9]
  inhibition of growth at 10 µM: 57%
PC-3 [10]
  inhibition of growth at 10 µM: 54.6%
HOP-62
  inhibition of growth at 10 µM: 46.3%
HOP-92 [11]; read-out: GI50
  GI50: 1.51 µM
HOP-92 [11]; [23]
  CC50: 16.3 µM
HOP-92 [11]; read-out: TGI
  TGI: 4.23 µM
HOP-92 [11]; read-out: pGI50 (converted)
  GI50: 1.51 µM
HOP-92 [11]; [24]
  CC50: 16.2 µM
HOP-92 [11]; read-out: pTGI (converted)
  TGI: 4.27 µM
LOX IMVI
  inhibition of growth at 10 µM: 46.8%
MDA-MB-231
  inhibition of growth at 10 µM: 18.7%
SW-620
  inhibition of growth at 10 µM: 33.1%
786-0
  growth at 10 µM: 61.8%
SNB-19
  growth at 100 µM: -62%
HCT-15 [12]
  growth at 10 µM: 25.1%
TK-10
  growth at 10 µM: 79.9%
UACC-257 [13]; read-out: GI50
  GI50: 14.5 µM
UACC-257 [13]; [23]
  CC50: > 100 µM
UACC-257 [13]; read-out: TGI
  TGI: 45.6 µM
UACC-257 [13]; read-out: pGI50 (converted)
  GI50: 14.5 µM
UACC-257 [13]; [24]
  CC50: > 100 µM
UACC-257 [13]; read-out: pTGI (converted)
  TGI: 45.7 µM
HT-29
  inhibition of growth at 10 µM: 50.7%
MCF7
  growth at 0.01 µM: 97%
SR [14]
  inhibition of growth at 10 µM: 29.8%
MOLT-4 [15]
  growth at 10 µM: 49.6%
IGROV-1 [16]
  growth at 0.1 µM: 106%
UACC-62
  growth at 10 µM: 67.2%
SN12C
  growth at 0.1 µM: 96%
HCT-15 [17]
  growth at 0.1 µM: 87%
NCI-H522
  growth at 10 µM: 67.7%
IGROV-1 [18]
  growth at 10 µM: 78.3%
UACC-257 [19]
  growth at 0.1 µM: 93%
SK-MEL-28
  inhibition of growth at 10 µM: 11.7%
[20]
  growth at 100 µM: -66%
KM12 [21]
  growth at 0.1 µM: 79%
KM12 [22]
  growth at 0.01 µM: 100%
